Experimental data published in US10865334B2, “Process for extracting materials from biological material” (Universiteit Leiden, priority 2010, dated 2020).
≈ marks a conversion by molar mass, not a printed value.

How the values were obtained:
[1] = solubility of flavonoids in naturally occurring deep eutectic solvents; type: physicochemical
Protocol: First the solubility of natural products, which are not soluble in water, was evaluated in a few selected natural deep eutectic solvents. Several flavonoids were chosen as the natural water-insoluble products, because they are one of the most abundant water-insoluble plant secondary metabolites. Up to now more than 500 flavonoids have been known. Most of these flavonoids occur in their glycosides forms (bounded to a sugar molecule) in plants. In spite of large abundance of flavonoids in plants, both the glycoside and the aglycone (non-sugar) part are not soluble in water. […] The structure of these flavonoids are shown below.

[2] = solubility data in some typical Des at 40° C.; type: physicochemical; details: for solubility in GCH / solubility in H2O / solubility in LGH / solubility in PdCH / solubility in SoCH: n = 3
[3] = solvent GCH (Glc:Ch:H2O 1:2.5:2.5)
[4] = solvent LGH (Lac:Glc:H2O 5:1:2)
[5] = solvent PdCH (1,2Prop:Ch:H20 1:1:1)
[6] = deep eutectic solvent LGH, organic solvent or mixture, solvent LGH (Lac:Glc:H2O 5:1:2), n = 3, read-out: solubility in LGH
[7] = deep eutectic solvent PdCH, organic solvent or mixture, solvent PdCH (1,2Prop:Ch:H20 1:1:1), n = 3, read-out: solubility in PdCH
[8] = deep eutectic solvent SoCH, organic solvent or mixture, solvent SoCH (So:Ch:H2O), n = 3, read-out: solubility in SoCH
[9] = deep eutectic solvent GCH, organic solvent or mixture, solvent GCH (Glc:Ch:H2O 1:2.5:2.5), n = 3, read-out: solubility in GCH
[10] = organic solvent or mixture, Solubility in Fructose + Choline chloride
[11] = organic solvent or mixture, Solubility in Glucose + Choline chloride

solubility in GCH [2, 3] [mg/mL]	solubility in H2O ([2]; solvent H2O) [mg/mL]	solubility in LGH [2, 4] [mg/mL]	solubility in PdCH [2, 5] [mg/mL]	solubility in SoCH ([2]; solvent SoCH (So:Ch:H2O)) [mg/mL]	solubility [2, 6] [mg/mL]	solubility [2, 7] [mg/mL]	solubility [2, 8] [mg/mL]	SMILES	solubility [2, 9] [mg/mL]	solubility [1, 10] [mg/mL]	solubility [1, 11] [mg/mL]	solubility ([1]; water, Solubility in Water) [mg/mL]	further results
								C[C@@H]1O[C@@H](Oc2c(-c3ccc(O)c(O)c3)oc3cc(O)cc(O)c3c2=O)[C@H](O)[C@H](O)[C@H]1O [Quercitrin, quercetin-3-O-rhamnoside]					solubility ([1]; organic solvent or mixture, deep eutectic solvent Fructose + Choline chloride, read-out: Solubility in Fructose + Choline chloride): 11.2 ± 0.64 mg/mL; solubility ([1]; organic solvent or mixture, deep eutectic solvent Glucose + Choline chloride, read-out: Solubility in Glucose + Choline chloride): 7.81 ± 0.2 mg/mL; solubility ([1]; organic solvent or mixture, deep eutectic solvent Sucrose + Choline chloride, read-out: Solubility in Sucrose + Choline chloride): 12.7 ± 0.38 mg/mL; solubility ([1]; water, read-out: Solubility in Water): 0.159 ± 0.001 mg/mL (≈ 0.355 mM)
27.20 ± 0.39 (≈ 29.9 mM)	1.43 ± 0.01 (≈ 1.57 mM)	1.24 ± 0.21 (≈ 1.36 mM)	22.47 ± 1.00 (≈ 24.7 mM)	14.05 ± 0.66 (≈ 15.4 mM)				O=C(/C=C/c1ccc(O)cc1)C1=C(O)[C@](O)([C@@H]2O[C@H](CO)[C@@H](O)[C@H](O)[C@H]2O)C(O)=C(/C=C2/C(=O)C(C(=O)/C=C/c3ccc(O)cc3)=C(O)[C@@](O)([C@@H]3O[C@H](CO)[C@@H](O)[C@H](O)[C@H]3O)C2=O)C1=O [carthamin]					
5.85 ± 0.42 (≈ 13.8 mM)	0.15 ± 0.00 (≈ 0.353 mM)	1.93 ± 0.31 (≈ 4.55 mM)	78.42 ± 14.45 (≈ 185 mM)	1.70 ± 0.01 (≈ 4.01 mM)				CC1C(=O)OC2C(O)C34C5CC(C(C)(C)C)C36C(OC(=O)C6O)OC4(C(=O)O5)C12O (centres unmarked) [ginkgolide B]					
0.83 ± 0.16 (≈ 0.972 mM)					5.39 ± 0.55 (≈ 6.31 mM)	11.7 ± 0.68 (≈ 13.7 mM)	0.59 ± 0.01 (≈ 0.691 mM)	CC(=O)O[C@H]1C(=O)[C@@]2(C)[C@H]([C@H](OC(=O)c3ccccc3)[C@]3(O)C[C@H](OC(=O)[C@H](O)[C@@H](NC(=O)c4ccccc4)c4ccccc4)C(C)=C1C3(C)C)[C@]1(OC(C)=O)CO[C@@H]1C[C@@H]2O [paclitaxel]					
					1.72 ± 0.09 (≈ 5.69 mM)	205 ± 7.31 (≈ 679 mM)	146 ± 2.82 (≈ 483 mM)	O=c1c(O)c(-c2ccc(O)c(O)c2)oc2cc(O)cc(O)c12 [quercetin]	20.1 ± 0.41 (≈ 66.4 mM)	23.3 ± 2.54	21.6 ± 0.94	0.3 ± 0.002 (≈ 0.993 mM)	Solubility in Sucrose + Choline chloride [1]: 15.63 ± 0.57 mg/mL

SMILES	solubility in GCH [2, 3] [mg/mL]	solubility in H2O ([2]; solvent H2O) [mg/mL]	solubility in LGH [2, 4] [mg/mL]	solubility in PdCH [2, 5] [mg/mL]	solubility in SoCH ([2]; solvent SoCH (So:Ch:H2O)) [mg/mL]	solubility [2, 6] [mg/mL]	solubility [2, 7] [mg/mL]	solubility [2, 8] [mg/mL]	solubility [2, 9] [mg/mL]	solubility [1, 10] [mg/mL]	solubility [1, 11] [mg/mL]	solubility ([1]; water, Solubility in Water) [mg/mL]	further results
C[C@@H]1O[C@@H](OC[C@H]2O[C@@H](Oc3c(-c4ccc(O)c(O)c4)oc4cc(O)cc(O)c4c3=O)[C@H](O)[C@@H](O)[C@@H]2O)[C@H](O)[C@H](O)[C@H]1O [rutin, quercetin-3-O-rhanmoglucoside]						8.14 ± 0.79 (≈ 13.3 mM)	353 ± 31.2 (≈ 578 mM)	149 ± 2.61 (≈ 244 mM)	122 ± 1.45 (≈ 199 mM)	10.9 ± 1.7	4.78 ± 0.84	< 0.001	solubility ([2]; water, solvent H2O, n = 3, read-out: solubility in H2O): 0.028 mg/mL (≈ 0.0459 mM); solubility ([1]; organic solvent or mixture, Solubility in Sucrose + Choline chloride): 2.41 ± 0.18 mg/mL
